test system: pdr5 ypt1^ts cells; assay: microbe, parasite or virus in culture; format: cell-based, yeast; details: Table 3; 3.13 uM compound; 37° C.; background (0 uM) 0.077
Outline: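 Whole-cell yeast growth-rescue screen: pdr5 ypt1^ts cells (efflux pump inactivated), growth-arrested at 37° C., cultured with compounds at 37° C. Restoration of growth read by optical density.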

SMILES	optical density, 3.13 uM
O=C1c2c(O)ccc(O)c2C(=O)c2c(NCCNCCO)ccc(NCCNCCO)c21 [MITO- XANTHRONE HYDRO- CHLORIDE, reference compound]	0.149
COc1ccccc1-c1cc(=O)c2c(OC)cccc2o1 [5,2′- DIMETHOXY- FLAVONE]	0.088
CC1(C)C(=O)C=C[C@@]2(C)C1CC(=O)[C@]1(C)C2CC[C@@]2(C)[C@H](c3ccoc3)OC(=O)[C@H]3O[C@]321 (stereo partly drawn) [DEACETOXY- 7-OXOGEDUNIN]	0.594
C[C@]12CC[C@@H](O)C[C@H]1CCc1ccccc12 [3alpha- HYDROXY-4,4- BISNOR- 8,11,13- PODO- […]]	0.074
COC(=O)C(O)[C@H]1C(C)(C)[C@@H](OC(C)=O)[C@@H]2CC3=C4CC(=O)O[C@@H](c5ccoc5)[C@]4(C)CCC3[C@]1(C)C2=O (stereo partly drawn) [SWIETENOLIDE- 3-ACETATE]	0.425
O=c1c2ccccc2oc2ccc(O)cc12 [2-HYDROXY- XANTHONE]	0.107
CNC(=O)Oc1cccc2c1OC(C)(C)C2 [CARBO- FURAN]	0.176
COc1c2occc2cc2ccc(=O)oc12 [METHOX- SALEN, reference compound]	0.124
CC(=O)O[C@@H]1CC2C(C)(C)C(=O)C=C[C@]2(C)C2CC[C@]3(C)C(=CC(=O)O[C@H]3c3ccoc3)[C@@]21C (stereo partly drawn) [DEOXY- GEDUNIN]	0.092
O=C(/C=C/C=C/c1ccc2c(c1)OCO2)N1CCCCC1 [PIPERINE]	0.107
COc1ccc(-c2coc3c(OC)c(OC)cc(O)c3c2=O)cc1 [ISO- TECTORIGENIN, 7-METHYL ETHER]	0.09
CC(=O)O[C@@H]1CC2C(C)(C)C(=O)C=C[C@]2(C)C2CC[C@@]3(C)[C@H](c4ccoc4)OC(=O)[C@H]4O[C@]43[C@@]21C (stereo partly drawn) [GEDUNIN]	0.109
CC1(C)C(=O)C=C[C@@]2(C)C1C[C@@H](O)[C@]1(C)C2CC[C@@]2(C)[C@H](c3ccoc3)OC(=O)[C@H]3O[C@]321 (stereo partly drawn) [DEACETYL- GEDUNIN]	0.116
Cc1ccc2c(c1)CC[C@H]1CC(=O)CC[C@]21C [13-METHYL- 4,4-BISNOR- 8,11,13- PODO- […]- 3-ONE]	0.082
C/C=C(/C(=C/C)c1ccc(O)cc1)c1ccc(O)cc1 [DIENESTROL, reference compound]	0.142

same assay, conditions: Table 3; 12.5 uM compound; 37° C.; background (0 uM) 0.077

SMILES	optical density, 12.5 uM
O=C1c2c(O)ccc(O)c2C(=O)c2c(NCCNCCO)ccc(NCCNCCO)c21 [MITO- XANTHRONE HYDRO- CHLORIDE, reference compound]	0.132
COc1ccccc1-c1cc(=O)c2c(OC)cccc2o1 [5,2′- DIMETHOXY- FLAVONE]	0.256
CC1(C)C(=O)C=C[C@@]2(C)C1CC(=O)[C@]1(C)C2CC[C@@]2(C)[C@H](c3ccoc3)OC(=O)[C@H]3O[C@]321 (stereo partly drawn) [DEACETOXY- 7-OXOGEDUNIN]	0.63
C[C@]12CC[C@@H](O)C[C@H]1CCc1ccccc12 [3alpha- HYDROXY-4,4- BISNOR- 8,11,13- PODO- […]]	0.104
COC(=O)C(O)[C@H]1C(C)(C)[C@@H](OC(C)=O)[C@@H]2CC3=C4CC(=O)O[C@@H](c5ccoc5)[C@]4(C)CCC3[C@]1(C)C2=O (stereo partly drawn) [SWIETENOLIDE- 3-ACETATE]	0.629
O=c1c2ccccc2oc2ccc(O)cc12 [2-HYDROXY- XANTHONE]	0.257
CNC(=O)Oc1cccc2c1OC(C)(C)C2 [CARBO- FURAN]	0.264
COc1c2occc2cc2ccc(=O)oc12 [METHOX- SALEN, reference compound]	0.25
CC(=O)O[C@@H]1CC2C(C)(C)C(=O)C=C[C@]2(C)C2CC[C@]3(C)C(=CC(=O)O[C@H]3c3ccoc3)[C@@]21C (stereo partly drawn) [DEOXY- GEDUNIN]	0.141
O=C(/C=C/C=C/c1ccc2c(c1)OCO2)N1CCCCC1 [PIPERINE]	0.135
COc1ccc(-c2coc3c(OC)c(OC)cc(O)c3c2=O)cc1 [ISO- TECTORIGENIN, 7-METHYL ETHER]	0.147
CC(=O)O[C@@H]1CC2C(C)(C)C(=O)C=C[C@]2(C)C2CC[C@@]3(C)[C@H](c4ccoc4)OC(=O)[C@H]4O[C@]43[C@@]21C (stereo partly drawn) [GEDUNIN]	0.231
CC1(C)C(=O)C=C[C@@]2(C)C1C[C@@H](O)[C@]1(C)C2CC[C@@]2(C)[C@H](c3ccoc3)OC(=O)[C@H]3O[C@]321 (stereo partly drawn) [DEACETYL- GEDUNIN]	0.185
Cc1ccc2c(c1)CC[C@H]1CC(=O)CC[C@]21C [13-METHYL- 4,4-BISNOR- 8,11,13- PODO- […]- 3-ONE]	0.152
C/C=C(/C(=C/C)c1ccc(O)cc1)c1ccc(O)cc1 [DIENESTROL, reference compound]	0.309

same assay, conditions: Table 3; 50 uM compound; 37° C.; background (0 uM) 0.077

SMILES	optical density, 50 uM
O=C1c2c(O)ccc(O)c2C(=O)c2c(NCCNCCO)ccc(NCCNCCO)c21 [MITO- XANTHRONE HYDRO- CHLORIDE, reference compound]	0.313
COc1ccccc1-c1cc(=O)c2c(OC)cccc2o1 [5,2′- DIMETHOXY- FLAVONE]	0.383
CC1(C)C(=O)C=C[C@@]2(C)C1CC(=O)[C@]1(C)C2CC[C@@]2(C)[C@H](c3ccoc3)OC(=O)[C@H]3O[C@]321 (stereo partly drawn) [DEACETOXY- 7-OXOGEDUNIN]	0.642
C[C@]12CC[C@@H](O)C[C@H]1CCc1ccccc12 [3alpha- HYDROXY-4,4- BISNOR- 8,11,13- PODO- […]]	0.408
COC(=O)C(O)[C@H]1C(C)(C)[C@@H](OC(C)=O)[C@@H]2CC3=C4CC(=O)O[C@@H](c5ccoc5)[C@]4(C)CCC3[C@]1(C)C2=O (stereo partly drawn) [SWIETENOLIDE- 3-ACETATE]	0.619
O=c1c2ccccc2oc2ccc(O)cc12 [2-HYDROXY- XANTHONE]	0.571
CNC(=O)Oc1cccc2c1OC(C)(C)C2 [CARBO- FURAN]	0.239
COc1c2occc2cc2ccc(=O)oc12 [METHOX- SALEN, reference compound]	0.38
CC(=O)O[C@@H]1CC2C(C)(C)C(=O)C=C[C@]2(C)C2CC[C@]3(C)C(=CC(=O)O[C@H]3c3ccoc3)[C@@]21C (stereo partly drawn) [DEOXY- GEDUNIN]	0.328
O=C(/C=C/C=C/c1ccc2c(c1)OCO2)N1CCCCC1 [PIPERINE]	0.377
COc1ccc(-c2coc3c(OC)c(OC)cc(O)c3c2=O)cc1 [ISO- TECTORIGENIN, 7-METHYL ETHER]	0.595
CC(=O)O[C@@H]1CC2C(C)(C)C(=O)C=C[C@]2(C)C2CC[C@@]3(C)[C@H](c4ccoc4)OC(=O)[C@H]4O[C@]43[C@@]21C (stereo partly drawn) [GEDUNIN]	0.183
CC1(C)C(=O)C=C[C@@]2(C)C1C[C@@H](O)[C@]1(C)C2CC[C@@]2(C)[C@H](c3ccoc3)OC(=O)[C@H]3O[C@]321 (stereo partly drawn) [DEACETYL- GEDUNIN]	0.377
Cc1ccc2c(c1)CC[C@H]1CC(=O)CC[C@]21C [13-METHYL- 4,4-BISNOR- 8,11,13- PODO- […]- 3-ONE]	0.424
C/C=C(/C(=C/C)c1ccc(O)cc1)c1ccc(O)cc1 [DIENESTROL, reference compound]	0.044

— patent US20100305068A1, “COMPOUNDS AND METHODS FOR MODULATING PROTEIN TRAFFICKING” (priority 2006, published 2010)
